Test system: HOP-62 multicell spheroids with HUVEC/MSC, viability
Test: Anticancer human tumor HOP-62 cell line growth inhibition [KRAS2];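 also: viability read after a week of compound exposure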;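 as to viability, T/C: 100% = DMSO vehicle-treated spheroids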
Details: for IC50: curve of first compound; for viability, T/C: stronger effect = lower value
How it was run: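 KRAS-mutant tumor cells were grown as spheroids with HUVEC endothelial cells and human MSCs as stroma. Targeted agents were tested alone and with KRAS pathway inhibitors. Doses started at or near clinical Cmax, or 10 microM, descending half-log.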

O=C(c1cc(Cc2n[nH]c(=O)c3ccccc23)ccc1F)N1CCN(C(=O)C2CC2)CC1 + C=CC(=O)N1CCN(c2nc(=O)n(-c3c(C)ccnc3C(C)C)c3nc(-c4c(O)cccc4F)c(F)cc23)C(C)C1
IC50 (second compound 0.1 µM): 39.7 nM | IC50 (second compound 0.316 µM): 271 nM | IC50 (second compound 1 µM): 708 nM | IC50 (second compound 3.16 µM): 249 nM | IC50 (second compound 10 µM): < 31.6 nM | viability, T/C (second compound 0.1 µM, first compound 0.0316 µM): 50.3% | viability, T/C (second compound 0.1 µM, first compound 0.1 µM): 47.2% | viability, T/C (second compound 0.1 µM, first compound 0.316 µM): 37.5% | viability, T/C (second compound 0.1 µM, first compound 1 µM): 35.6% | viability, T/C (second compound 0.1 µM, first compound 3.16 µM): 27.7% | viability, T/C (second compound 0.1 µM, first compound 10 µM): 27.4% | viability, T/C (second compound 0.316 µM, first compound 0.0316 µM): 64% | viability, T/C (second compound 0.316 µM, first compound 0.1 µM): 61.2% | viability, T/C (second compound 0.316 µM, first compound 0.316 µM): 45.5% | viability, T/C (second compound 0.316 µM, first compound 1 µM): 40.4% | viability, T/C (second compound 0.316 µM, first compound 3.16 µM): 37.6% | viability, T/C (second compound 0.316 µM, first compound 10 µM): 29.3% | viability, T/C (second compound 1 µM, first compound 0.0316 µM): 59.3% | viability, T/C (second compound 1 µM, first compound 0.1 µM): 54.7% | viability, T/C (second compound 1 µM, first compound 0.316 µM): 53.2% | viability, T/C (second compound 1 µM, first compound 1 µM): 49.8% | viability, T/C (second compound 1 µM, first compound 3.16 µM): 40.8% | viability, T/C (second compound 1 µM, first compound 10 µM): 31.6% | viability, T/C (second compound 3.16 µM, first compound 0.0316 µM): 58.9% | viability, T/C (second compound 3.16 µM, first compound 0.1 µM): 50.5% | viability, T/C (second compound 3.16 µM, first compound 0.316 µM): 48.3% | viability, T/C (second compound 3.16 µM, first compound 1 µM): 47.8% | viability, T/C (second compound 3.16 µM, first compound 3.16 µM): 42.1% | viability, T/C (second compound 3.16 µM, first compound 10 µM): 37.4% | viability, T/C (second compound 10 µM, first compound 0.0316 µM): 52% | viability, T/C (second compound 10 µM, first compound 0.1 µM): 46.1% | viability, T/C (second compound 10 µM, first compound 0.316 µM): 48.8% | viability, T/C (second compound 10 µM, first compound 1 µM): 46.7% | viability, T/C (second compound 10 µM, first compound 3.16 µM): 43.2% | viability, T/C (second compound 10 µM, first compound 10 µM): 36.8%

Reference: PubChem BioAssay AID1963858 (Molecular Pharmacology Branch, DTP, NCI, 2024)
